Where two headings read alike, the source gives them in different places.
Columns and labels:
NFκB pathway = settings: A549, HeLa, MG63, 16HBE, and H9 cell lines; IL-1β / TNFα stimulation; cited from earlier work
[1] = ocular exposure and pharmacokinetics after BID eyelid cream administration in minipigs; assay type: in vivo, Hanford minipigs; settings: for concentration at 8 h: 8 hours post final dose
Description: (§1) To determine the ocular exposure and pharmacokinetics following topical cream administration to the eyelids, the cream containing 2% of compound of Formula I was applied BID to eyelids of 8 Hanford minipigs for 7 days and one additional application on day 8 for a total of 15 topical doses. After the last dose on day 8, two animals each were euthanized at 2, 4, 8, and 24 hours after the final dose, and eyes were collected for dissection into the following tissues and fluids: eyelids (including palpebral conjunctiva), bulbar conjunctiva, cornea, iris/ciliary body (ICB), and aqueous humor (AQH). Plasma was also collected (prior to dose application on Days 1 and 8, and prior to euthanasia). […] Meibum was believed to be only one lipid compartment in the eyelids that could act as a depot for lipophilic compounds. […] and other fatty tissues were others. Attempts to express meibum from the ducts, thereby rendering the eyelid itself unusable for further analysis, would have not permitted assessment of drug content in other potential lipid structures in the eyelids. Thus, the decision was made to assess drug exposure in the eyelid as an intact tissue to capture all potential drug depots.
Three different extraction and analytical methods were developed for the determination of the compound of Formula I in i) plasma and aqueous humor; ii) bulbar conjunctiva, cornea, ICB; iii) eyelids. Assay ranges were 0.1-100 ng/mL, 1-1000 ng/g, and 1-1000 ng/g, respectively. Briefly, analytical methods were as follows: i) plasma and aqueous humor standards were from minipig and rabbit, respectively; ii) bulbar conjunctiva, cornea, ICB standard was rabbit cornea; iii) eyelid standard was pig skin. The internal standard working solution for analytical purposes was comprised of 20.0 ng/mL ^13C2, ^15N-labeled compound of Formula I in acetonitrile with 1% formic acid (v/v) which was being added to each sample. The tissue/fluid sample extraction procedure involved i) plasma/aqueous humor sample; ii) bulbar conjunctiva, cornea, ICB homogenization in acetonitrile; iii) eyelid digestion in 1:1 acetonitrile:ammonium hydroxide solution for 1.5 hours at 37° C. followed by acetonitrile addition, homogenization, and neutralization with formic acid; in all cases followed by addition of internal standard working solution, vortexing and centrifugation. Analysis of the samples was then carried out with LC-MS/MS, employing mobile phases A (Water with 0.1% formic acid) and B (acetonitrile with 0.1% formic acid).

[2] = in vitro skin penetration, human cadaver skin in Franz-type diffusion cells; assay type: in vitro ADME
Description: An in vitro skin penetration model using human cadaver skin mounted in Franz-type diffusion cells (FDC) was chosen to determine the skin permeation of the compound of Formula I applied as a 2% cream to the epidermal surface. Transdermal flux into a receptor fluid was measured over a period of 46 hours after application of the formulations. At the end of the 46-hour incubation period, the skin was tape-stripped and heat separated based on an established method and the concentration of the compound of Formula I was measured in the residual epidermis and dermis. The applied formulations comprised of 2% w/w compound of Formula I, 46% w/w white petrolatum, 8% w/w mineral oil, 8% w/w propylene glycol, 6.6% w/w ST-cyclomethicone-SNF, 3.3% w/w emulsifier 10, 2% w/w ST-elastomer-10, 0.08% w/w methylparaben, 0.06% w/w sodium phosphate dibasic anhydrous, 0.05% w/w citric acid anhydrous, 0.02% w/w propylparaben, and q.s. purified water. Vehicle cream comprised of 48% w/w white petrolatum, 8% w/w mineral oil, 8% w/w propylene glycol, 6.6% w/w ST-cyclomethicone-SNF, 3.3% w/w emulsifier 10, 2% w/w ST-elastomer-10, 0.08% w/w methylparaben, 0.06% w/w sodium phosphate dibasic anhydrous, 0.05% w/w citric acid anhydrous, 0.02% w/w propylparaben, and q.s. purified water was also tested as a negative control. […]
A high performance liquid chromatography UV (“HPLC-UV”) analytical method and an LC-MS/MS method for detecting the compound of Formula I in the skin and in the receptor fluid samples, respectively, was implemented and employed mobile phases A (0.05 mL trifluoroacetic acid (TFA) in 1000 mL LC-MS grade water) and B (0.05 mL TFA in 1000 mL LC-MS grade acetonitrile). The lower level of quantification (LLOQ) for the compound of Formula I for the LC-MS/MS method was determined to be in the 6-10 ng/mL range.

glucocorticoid receptor [3] = biological target: T1, glucocorticoid receptor (Homo sapiens, UniProt P04150); settings: variety of human in vitro assays; cited from earlier work
T1 sequence (P04150 1-777): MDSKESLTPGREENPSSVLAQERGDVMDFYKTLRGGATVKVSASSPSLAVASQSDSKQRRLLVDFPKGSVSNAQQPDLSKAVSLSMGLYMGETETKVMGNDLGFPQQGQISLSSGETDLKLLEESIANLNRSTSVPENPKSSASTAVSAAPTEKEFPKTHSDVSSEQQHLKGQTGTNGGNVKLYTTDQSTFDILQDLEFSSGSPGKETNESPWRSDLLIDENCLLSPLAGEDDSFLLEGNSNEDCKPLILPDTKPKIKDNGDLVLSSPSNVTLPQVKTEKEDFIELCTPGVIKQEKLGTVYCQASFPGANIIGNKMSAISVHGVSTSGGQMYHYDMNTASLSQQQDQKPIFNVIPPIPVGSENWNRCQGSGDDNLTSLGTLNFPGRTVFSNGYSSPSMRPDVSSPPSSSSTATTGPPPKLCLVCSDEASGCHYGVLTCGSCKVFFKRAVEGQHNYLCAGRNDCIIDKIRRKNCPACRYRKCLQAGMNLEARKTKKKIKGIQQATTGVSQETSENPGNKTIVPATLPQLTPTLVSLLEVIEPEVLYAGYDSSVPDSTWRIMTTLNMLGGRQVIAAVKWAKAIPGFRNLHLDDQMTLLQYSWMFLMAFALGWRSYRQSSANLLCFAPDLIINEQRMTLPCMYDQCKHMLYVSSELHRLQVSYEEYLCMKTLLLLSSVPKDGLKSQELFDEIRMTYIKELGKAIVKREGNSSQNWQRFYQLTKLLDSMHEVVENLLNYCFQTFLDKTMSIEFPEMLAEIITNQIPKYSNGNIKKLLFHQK

[4] = tested on: cynomolgus monkeys with unilateral (OS) ocular hypertension; experiment: diurnal intraocular pressure during 4-week topical ocular treatment in ocular hypertensive monkeys; assay type: in vivo; settings: 4 weeks
Description: To test the effect of the compound of Formula I on intraocular pressure (IOP), eight female cynomolgus monkeys with unilateral (OS) ocular hypertension induced by prior photocoagulation (laser) procedure to the trabecular meshwork (TM) were used at an age between 11 and 14 years at the start of the study. Laser induced ocular hypertension had been created at least 9 years earlier in the study animals. Animals and treatments were randomized according to a 4×4 replications Williams-type Latin Square design layout. Following random assignment of a number between 1 and 8, the eight primates were randomized two each into four treatment groups (A-D), with treatments masked for the investigators until all data had been collected and entered into a database. […]
Conscious animals were seated in custom-designed chairs, and […] was measured with a pneumatonometer (Classic 30, Reichert Depew) after topical application of proparacaine hydrochloride (0.13%) in both eyes (FIG. 1). […] During run-in and treatment periods, diurnal IOP was determined two times per week at approximately 8:30 am, 1 pm, and 5 pm. For each animal bilateral tonometry was followed immediately by topical instillation of the appropriate drug formulation A, B, C, or D. During washout periods, diurnal IOP was measured once per week in both eyes at approximately 8:30 am, 1 pm, and 5 pm.

[5] = solubility limit in receptor fluid; assay type: physicochemical; settings: not told, aqueous with cosolvent or surfactant or cyclodextrin; phosphate-buffered saline pH 7.4 with 0.01 wt % Na azide and 1 wt % Brij 020
protein binding = assay type: in vitro ADME
[6] = tested on: models of lung inflammation; settings: mouse, intratracheal dosing; cited from earlier work
[7] = tested on: models of lung inflammation; settings: rat, intratracheal dosing; cited from earlier work
[8] = plasma exposure after BID eyelid cream administration in minipigs; assay type: in vivo, Hanford minipigs
Description: as §1
Three different extraction and analytical methods were developed for the determination of the compound of Formula I in i) plasma and aqueous humor; ii) bulbar conjunctiva, cornea, ICB; iii) eyelids. Assay ranges were 0.1-100 ng/mL, 1-1000 ng/g, and 1-1000 ng/g, respectively. Briefly, analytical methods were as follows: i) plasma and aqueous humor standards were from minipig and rabbit, respectively; ii) bulbar conjunctiva, cornea, ICB standard was rabbit cornea; iii) eyelid standard was pig skin. The internal standard working solution for analytical purposes was comprised of 20.0 ng/mL ^13C2, ^15N-labeled compound of Formula I in acetonitrile with 1% formic acid (v/v) which was being added to each sample. […]

glucocorticoid receptor [9] = biological target: T1, glucocorticoid receptor; settings: number of assays; cited from earlier work
[10] = tested on: rabbits, atropine sulfate model of dry eye disease; experiment: tear formation (Schirmer test) in atropine sulfate model of dry eye disease; assay type: in vivo; settings: 30 μL eye drops four times per day after atropine sulfate 1%, seven days
Description: Next, the effect on tear formation of treatment with the compound of Formula I was examined. Rabbits were placed in a restraining device, and atropine sulfate 1% ophthalmic solution (30 μL) was instilled into the lower conjunctival sac of each eye four times per day. Fifteen minutes after the administration of each dose of atropine sulfate, each eye received 30 μL of eye drops containing the active ingredient, vehicle, or saline. Tear volume was then evaluated by the Schirmer test (FIG. 2). Schirmer strips were carefully placed in the posterior (i.e., temporal) lower fornix for 60 seconds, and the wetted area was read in millimeters as an index of tear volume.

[11] = 46 hours after 10 μL of 2% cream on epidermal surface, 6 replicates

CCC(=O)O[C@]1(C(=O)SCF)[C@H](C)C[C@H]2[C@@H]3C[C@H](F)C4=CC(=O)C=C[C@]4(C)[C@@]3(F)[C@@H](O)C[C@@]21C [FP, fluticasone propionate, reference compound]
transrepression of NFκB pathway activation (IL-6, IL-8 release) (NFκB pathway): potently and efficiently transrepress

C[C@@H]1C[C@H]2[C@@H]3C[C@H](F)C4=CC(=O)C=C[C@]4(C)[C@@]3(F)[C@@H](O)C[C@]2(C)[C@@]1(OC(=O)C1C(C)(C)C1(C)C)C(=O)OCC#N [compound of Formula I, 6α,9α-difluoro-11 β-hydroxy-16α-methyl-3-oxo-17α-(2,2,3,3-tetramethycyclopropylcarbonyl)oxy-androsta-1,4-diene-17β-carboxylic acid cyanomethyl ester]
highest mean concentration in eyelid tissue ([1]; 4 hours post final dose, 2% cream, 15 applications over 7.5 days): 30613 ng/g | concentration at 8 h ([1]; Hanford, minipig, aqueous humor, topical, BID, 2% cream, 15 applications over 7.5 days, read-out: mean concentration in aqueous humor): 5.81 ng/g | concentration at 4 h ([1]; Hanford, minipig, bulbar conjunctiva, topical, BID, 4 hours post final dose, 2% cream, 15 applications over 7.5 days): 1930 ng/g | concentration at 8 h ([1]; Hanford, minipig, cornea, topical, BID, 2% cream, 15 applications over 7.5 days, read-out: mean concentration in cornea): 452 ng/g | concentration at 24 h ([1]; Hanford, minipig, iris/ciliary body (ICB), topical, BID, 24 hours post final dose, 2% cream, 15 applications over 7.5 days): 20.5 ng/g | exposure levels in each compartment over time ([1]; eyelids, conjunctiva, cornea, ICB, aqueous humor, post final peri-ocular dose): remained almost constant for up to 24 hours | detection in transdermal receptor fluid ([2]; 4, 8, 24 and 46 hours after application of 2% cream): not in the transdermal receptor fluid | accumulated amount in the dermis [2, 11]: 0.73+/−0.21 μg/cm^2 | accumulated amount in the epidermis [2, 11]: 2.89+/−0.32 μg/cm^2 | glucocorticoid receptor-mediated transrepression activity (glucocorticoid receptor [3]): close to full agonism | IOP compared with dexamethasone treatment ([4]; 10 mg/mL suspension vs MAXIDEX 1 mg/mL, TID): significantly lower than dexamethasone treatment | effect on intraocular pressure (IOP) ([4]; 10 mg/mL suspension, 25 μL OU TID, topical to the eye): did not result in increased IOP | solubility [5]: ~0.0358 mg/mL | fraction unbound (protein binding): ~0.01 | transrepression of NFκB pathway activation (IL-6, IL-8 release) (NFκB pathway): potently and efficiently transrepress | anti-inflammatory activity in models of lung inflammation [6]: potent anti-inflammatory activity | anti-inflammatory activity in models of lung inflammation [7]: potent anti-inflammatory activity | highest plasma concentration ([8]; 24 hours following the final Day 8 dose): 2.22 ng/mL | systemic accumulation ([8]; after 7.5 days of multiple topical eyelid application): no or very low systemic accumulation | plasma exposure ([8]; up to 24 hours after last application, LLOQ 0.1 ng/mL): generally low or below the lower limit of quantification | glucocorticoid receptor-mediated transactivation (glucocorticoid receptor [9]): partial response | tear formation (Schirmer test) [10]: prevented a decrease in tear formation similar to topical dexamethasone
